The series can be described thus: Molar enthalpy of transition or fusion. The following applies: Crystal; Adiabatic calorimetry.

Molecules are shown by their SMILES. ± gives the expanded uncertainty stated by the source.

Consider `CCC` [propane], for which the “Molar enthalpy of transition or fusion” value is 0.838 ± 0.00956 kcal/mol.

For the origin of these results see the NIST ThermoML archive (doi:10.1021/je900137r).
